Measured values published in patent US20240174659A1, “COMPOUNDS AND METHODS FOR YAP/TEAD MODULATION AND INDICATIONS THEREFOR” (Opna Bio SA, priority 2021, published 2024).

What follows are molecules tested on TEAD-dependent transcription (assay: Inhibitor activity against TEAD-dependent transcription in a cell-based reporter assay (MSTO-211H+12XGTIIC luciferase)). Conditions: Homo sapiens; MSTO-211H+12XGTIIC cells, 24 hours incubation, luciferase luminescence normalized to cell viability fluorescence, geometric mean; read-out: MSTO-211H GMean IC50 (uM) Cell Assay Reporter Cell Variant: TEAD.
Summary of the method: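 MSTO-211H mesothelioma cells stably carrying a 12xGTIIC TEAD-response-element luciferase reporter, treated with serial compound dilutions for 24 h at 37 °C. Luminescence normalized to CellTiter-Fluor viability signal; % inhibition versus DMSO and 20 μM K-975 controls, IC50 by nonlinear regression.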

SMILES | IC50
C=CC(=O)N1CCc2ccc(OC3CCC4(CC3)CC4)cc2C1 [P-0077, 1-(7-(spiro[2.5]octan-6-yloxy)-3,4-dihydroisoquinolin-2(1H)-yl)prop-2-en-1-one] | 0.001 to 0.5 µM
C=CC(=O)N1CCc2ccc(OCc3ccc(C(F)(F)F)cc3)cc2C1 [P-0078, 1-(7-((4-(trifluoromethyl)benzyl)oxy)-3,4-dihydroisoquinolin-2(1H)-yl)prop-2-en-1-one] | 0.5 to 20 µM
C=CC(=O)N1CCc2ccc(OCc3ccc(C(F)(F)F)nc3)cc2C1 [P-0079, 1-(7-((6-(trifluoromethyl)pyridin-3-yl)methoxy)-3,4-dihydroisoquinolin-2(1H)-yl)prop-2-en-1-one] | > 20 µM
C=CC(=O)N1CCc2ccc(OCC3CCC(F)(F)CC3)cc2C1 [P-0080, 1-(7-((4,4-difluorocyclohexyl)methoxy)-3,4-dihydroisoquinolin-2(1H)-yl)prop-2-en-1-one] | 0.001 to 0.5 µM
C=CC(=O)N1CCc2ccc(OCc3cc(C)on3)cc2C1 [P-0081, 1-(7-((5-methylisoxazol-3-yl)methoxy)-3,4-dihydroisoquinolin-2(1H)-yl)prop-2-en-1-one] | > 20 µM
C=CC(=O)N1CCc2ccc(OC3CCC(C)(C)CC3)cc2C1 [P-0082, 1-(7-((4,4-dimethylcyclohexyl)oxy)-3,4-dihydroisoquinolin-2(1H)-yl)prop-2-en-1-one] | 0.001 to 0.5 µM
C=CC(=O)N1CCc2ccc(OCc3cccc(C(F)(F)F)c3)cc2C1 [P-0083, 1-(7-((3-(trifluoromethyl)benzyl)oxy)-3,4-dihydroisoquinolin-2(1H)-yl)prop-2-en-1-one] | 0.001 to 0.5 µM
C=CC(=O)N1CCc2ccc(OC3CCS(=O)(=O)CC3)cc2C1 [P-0084, 1-(7-((1,1-dioxidotetrahydro-2H-thiopyran-4-yl)oxy)-3,4-dihydroisoquinolin-2(1H)-yl)prop-2-en-1-one] | 0.001 to 0.5 µM
C=CC(=O)N1CCc2ccc(OC3CCC(F)(F)C3)cc2C1 (centres unmarked) [P-0085, 1-(7-((3,3-difluorocyclopentyl)oxy)-3,4-dihydroisoquinolin-2(1H)-yl)prop-2-en-1-one] | 0.001 to 0.5 µM
C=CC(=O)N1CCc2ccc(O[C@@H]3C[C@@H]4[C@H](C3)C4(F)F)cc2C1 [P-0086, 1-(7-(((1R,3s,5S)-6,6-difluorobicyclo[3.1.0]hexan-3-yl)oxy)-3,4-dihydroisoquinolin-2(1H)-yl)prop-2-en-1-one] | 0.001 to 0.5 µM
C=CC(=O)N1CCc2ccc(NC3CC4C(C3)C4(F)F)cc2C1 (centres unmarked) [P-0087, 1-(7-((6,6-difluorobicyclo[3.1.0]hexan-3-yl)amino)-3,4-dihydroisoquinolin-2(1H)-yl)prop-2-en-1-one] | 0.001 to 0.5 µM
C=CC(=O)N1CCc2ccc(OCc3ccccc3C(F)(F)F)cc2C1 [P-0088, 1-(7-((2-(trifluoromethyl)benzyl)oxy)-3,4-dihydroisoquinolin-2(1H)-yl)prop-2-en-1-one] | 0.001 to 0.5 µM
C=CC(=O)N1CCc2ccc(NCc3ccccc3)cc2C1 [P-0089, 1-(7-(benzylamino)-3,4-dihydroisoquinolin-2(1H)-yl)prop-2-en-1-one] | 0.001 to 0.5 µM
C=CC(=O)N1CCc2ccc(NCc3cccc(F)c3)cc2C1 [P-0090, 1-(7-((3-fluorobenzyl)amino)-3,4-dihydroisoquinolin-2(1H)-yl)prop-2-en-1-one] | 0.001 to 0.5 µM
C=CC(=O)N1CCc2ccc(OCc3cccc(F)c3)cc2C1 [P-0091, 1-(7-((3-fluorobenzyl)oxy)-3,4-dihydroisoquinolin-2(1H)-yl)prop-2-en-1-one] | 0.001 to 0.5 µM
C=CC(=O)N1CCc2ccc(Oc3cccc(C#N)c3)cc2C1 [P-0092, 3-((2-acryloyl-1,2,3,4-tetrahydroisoquinolin-7-yl)oxy)benzonitrile] | 0.001 to 0.5 µM
C=CC(=O)N1Cc2cc(Oc3ccc(C(F)(F)F)nc3)ccc2C(C)C1 (centres unmarked) [P-0093, 1-(4-methyl-7-((6-(trifluoromethyl)pyridin-3-yl)oxy)-3,4-dihydroisoquinolin-2(1H)-yl)prop-2-en-1-one] | 0.001 to 0.5 µM
C=CC(=O)N1Cc2cc(OC3CCC(F)(F)CC3)ccc2C(C)C1 (centres unmarked) [P-0094, 1-(7-((4,4-difluorocyclohexyl)oxy)-4-methyl-3,4-dihydroisoquinolin-2(1H)-yl)prop-2-en-1-one] | 0.001 to 0.5 µM
C=CC(=O)N1CCc2c(F)cc(OC3CCC(F)(F)CC3)cc2C1 [P-0095, 1-(7-((4,4-difluorocyclohexyl)oxy)-5-fluoro-3,4-dihydroisoquinolin-2(1H)-yl)prop-2-en-1-one] | 0.001 to 0.5 µM
C=CC(=O)N1CCc2ccc(OCc3ccccc3F)cc2C1 [P-0096, 1-(7-((2-fluorobenzyl)oxy)-3,4-dihydroisoquinolin-2(1H)-yl)prop-2-en-1-one] | > 20 µM
C=CC(=O)N1CCc2ccc(NC3CCC4(CC3)CC4)cc2C1 [P-0097, 1-(7-(spiro[2.5]octan-6-ylamino)-3,4-dihydroisoquinolin-2(1H)-yl)prop-2-en-1-one] | 0.5 to 20 µM

SMILES | IC50
C=CC(=O)N1CCc2cc(F)c(Oc3ccc(C(F)(F)F)c(F)c3)cc2C1 [P-0098, 1-(6-fluoro-7-(3-fluoro-4-(trifluoromethyl)phenoxy)-3,4-dihydroisoquinolin-2(1H)-yl)prop-2-en-1-one] | 0.001 to 0.5 µM
C=CC(=O)N1CCc2cc(C)c(Oc3ccc(C(F)(F)F)c(F)c3)cc2C1 [P-0099, 1-(7-(3-fluoro-4-(trifluoromethyl)phenoxy)-6-methyl-3,4-dihydroisoquinolin-2(1H)-yl)prop-2-en-1-one] | 0.001 to 0.5 µM
C=CC(=O)N1CCc2ccc(NCC3CCC(F)(F)CC3)cc2C1 [P-0100, 1-(7-(((4,4-difluorocyclohexyl)methyl)ami-no)-3,4-dihydroisoquinolin-2(1H)-yl)prop-2-en-1-one] | 0.001 to 0.5 µM
C=CC(=O)N1CCc2c(F)cc(Oc3ccc(C(F)(F)F)nc3)cc2C1 [P-0101, 1-(5-fluoro-7-((6-(trifluoromethyl)pyridin-3-yl)oxy)-3,4-dihydroisoquinolin-2(1H)-yl)prop-2-en-1-one] | 0.001 to 0.5 µM
C=CC(=O)N1CCc2cc(F)c(OC3CCC(F)(F)CC3)cc2C1 [P-0102, 1-(7-((4,4-difluorocyclohexyl)oxy)-6-fluoro-3,4-dihydroisoquinolin-2(1H)-yl)prop-2-en-1-one] | 0.001 to 0.5 µM
C=CC(=O)N1CCc2cc(F)c(Oc3ccc(C(F)(F)F)cc3)cc2C1 [P-0103, 1-(6-fluoro-7-(4-(trifluoromethyl)phenoxy)-3,4-dihydroisoquinolin-2(1H)-yl)prop-2-en-1-one] | 0.001 to 0.5 µM
C=CC(=O)N1CCc2ccc(Cc3ccc(C(F)(F)F)nc3)cc2C1 [P-0104, 1-(7-((6-(trifluoromethyl)pyridin-3-yl)methyl)-3,4-dihydroisoquinolin-2(1H)-yl)prop-2-en-1-one] | 0.001 to 0.5 µM
C=CC(=O)N1CCc2ccc(C(F)c3ccc(C(F)(F)F)nc3)cc2C1 (centres unmarked) [P-0105, 1-(7-(fluoro(6-(trifluoromethyl)pyridin-3-yl)methyl)-3,4-dihydroisoquinolin-2(1H)-yl)prop-2-en-1-one] | 0.5 to 20 µM
C=CC(=O)N1CCc2ccc(C(F)(F)c3ccc(C(F)(F)F)nc3)cc2C1 [P-0106, 1-(7-(difluoro(6-(trifluoromethyl)pyridin-3-yl)methyl)-3,4-dihydroisoquinolin-2(1H)-yl)prop-2-en-1-one] | 0.001 to 0.5 µM
C=CC(=O)N1CCc2ccc(OCC3CC(F)(F)C3)cc2C1 [P-0107, 1-(7-((3,3-difluorocyclobutyl)methoxy)-3,4-dihydroisoquinolin-2(1H)-yl)prop-2-en-1-one] | 0.001 to 0.5 µM
C=CC(=O)N1CCc2ccc(OCC34CC5CC(CC(C5)C3)C4)cc2C1 [P-0108, 1-(7-(((3r,5r,7r)-adamantan-1-yl)methoxy)-3,4-dihydroisoquinolin-2(1H)-yl)prop-2-en-1-one] | 0.001 to 0.5 µM
C=CC(=O)N1CCc2ccc(Oc3ccc(C4(C)CC4)cc3)cc2C1 [P-0109, 1-(7-(4-(1-methylcyclopropyl)phenoxy)-3,4-dihydroisoquinolin-2(1H)-yl)prop-2-en-1-one] | 0.001 to 0.5 µM
C=CC(=O)N1CCc2ccc(OCC34CCC(CC3)C4)cc2C1 [P-0110, 1-(7-(bicyclo[2.2.1]heptan-1-ylmethoxy)-3,4-dihydroisoquinolin-2(1H)-yl)prop-2-en-1-one] | 0.001 to 0.5 µM
C=CC(=O)N1CCc2ccc(OCC3CC4C(C3)C4(F)F)cc2C1 (centres unmarked) [P-0111, 1-(7-((6,6-difluorobicyclo[3.1.0]hexan-3-yl)methoxy)-3,4-dihydroisoquinolin-2(1H)-yl)prop-2-en-1-one] | 0.001 to 0.5 µM
C=CC(=O)N1Cc2cc(Oc3ccc(C(F)(F)F)cc3)ccc2C[C@H]1C(=O)OC [P-0112, methyl (S)-2-acryloyl-7-(4-(trifluoromethyl)phenoxy)-1,2,3,4-tetrahydroisoquinoline-3-carboxylate] | 0.001 to 0.5 µM
C=CC(=O)N1CCc2c(F)cc(Oc3ccc(C(F)(F)F)cc3)cc2C1 [P-0113, 1-(5-fluoro-7-(4-(trifluoromethyl)phenoxy)-3,4-dihydroisoquinolin-2(1H)-yl)prop-2-en-1-one] | 0.001 to 0.5 µM
C=CS(=O)(=O)N1CCc2ccc(Oc3ccc(C(F)(F)F)cc3)cc2C1 [P-0114, 7-(4-(trifluoromethyl)phenoxy)-2-(vinylsulfonyl)-1,2,3,4-tetrahydroisoquinoline] | 0.5 to 20 µM
C=CC(=O)N1CCc2ccc(Oc3ccc(C#N)cc3)cc2C1 [P-0115, 4-((2-acryloyl-1,2,3,4-tetrahydroisoquinolin-7-yl)oxy)benzonitrile] | 0.001 to 0.5 µM
CN(C)C/C=C/C(=O)N1CCc2ccc(Oc3ccc(C(F)(F)F)cc3)cc2C1 [P-0116, (E)-4-(dimethylamino)-1-(7-(4-(trifluoromethyl)phenoxy)-3,4-dihydroisoquinolin-2(1H)-yl)but-2-en-1-one] | 0.5 to 20 µM
O=C(/C=C/CN1CCC1)N1CCc2ccc(Oc3ccc(C(F)(F)F)cc3)cc2C1 [P-0117, (E)-4-(azetidin-1-yl)-1-(7-(4-(trifluoromethyl)phenoxy)-3,4-dihydroisoquinolin-2(1H)-yl)but-2-en-1-one] | 0.5 to 20 µM
